Measurements: PubChem BioAssay (NCI)
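Following 48 hours of exposure in 96-well plates, responses at five concentrations were used to interpolate endpoints linearly. GI50 marks 50% less growth. TGI marks complete inhibition of growth.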

What was measured:
Assay in all cases: NCI-60 cell line screen, 48 h
786-0 renal = system: 786-0 renal
A498 renal = system: A498 renal
A549 NSCLC = system: A549 NSCLC
ACHN renal = system: ACHN renal
BT-549 breast = system: BT-549 breast
CAKI-1 renal = system: CAKI-1 renal
CCRF-CEM leukemia = system: CCRF-CEM leukemia
COLO 205 colon = system: COLO 205 colon
DU-145 prostate = system: DU-145 prostate
EKVX NSCLC = system: EKVX NSCLC
HCC-2998 colon = system: HCC-2998 colon
HCT-116 colon = system: HCT-116 colon
HCT-15 colon = system: HCT-15 colon
HL-60(TB) leukemia = system: HL-60(TB) leukemia
HOP-62 NSCLC = system: HOP-62 NSCLC
HOP-92 NSCLC = system: HOP-92 NSCLC
HS 578T breast = system: HS 578T breast
HT29 colon = system: HT29 colon
IGROV1 ovarian = system: IGROV1 ovarian
K-562 leukemia = system: K-562 leukemia
KM12 colon = system: KM12 colon
LOX IMVI melanoma = system: LOX IMVI melanoma
M14 melanoma = system: M14 melanoma
MALME-3M melanoma = system: MALME-3M melanoma
MCF7 breast = system: MCF7 breast
MDA-MB-231 breast = system: MDA-MB-231 breast
MDA-MB-435 = system: MDA-MB-435
MOLT-4 leukemia = system: MOLT-4 leukemia
NCI-H226 lung = system: NCI-H226 lung
NCI-H23 lung = system: NCI-H23 lung
NCI-H460 lung = system: NCI-H460 lung
NCI-H522 lung = system: NCI-H522 lung
NCI/ADR-RES ovarian = system: NCI/ADR-RES ovarian
OVCAR-3 ovarian = system: OVCAR-3 ovarian
OVCAR-4 ovarian = system: OVCAR-4 ovarian
OVCAR-5 ovarian = system: OVCAR-5 ovarian
OVCAR-8 ovarian = system: OVCAR-8 ovarian
PC-3 prostate = system: PC-3 prostate
RPMI-8226 leukemia = system: RPMI-8226 leukemia
RXF 393 renal = system: RXF 393 renal
SF-268 CNS = system: SF-268 CNS
SF-295 CNS = system: SF-295 CNS
SF-539 CNS = system: SF-539 CNS
SK-MEL-2 melanoma = system: SK-MEL-2 melanoma
SK-MEL-28 melanoma = system: SK-MEL-28 melanoma
SK-MEL-5 melanoma = system: SK-MEL-5 melanoma
SK-OV-3 ovarian = system: SK-OV-3 ovarian
SN12C renal = system: SN12C renal
SNB-19 CNS = system: SNB-19 CNS
SNB-75 CNS = system: SNB-75 CNS
SR leukemia = system: SR leukemia
SW-620 colon = system: SW-620 colon
T-47D breast = system: T-47D breast
TK-10 renal = system: TK-10 renal
U251 CNS = system: U251 CNS
UACC-257 melanoma = system: UACC-257 melanoma
UACC-62 melanoma = system: UACC-62 melanoma
UO-31 renal = system: UO-31 renal

Question: For `COc1cc2nc(N3CCCN(C)CC3)nc(NC3CCN(Cc4ccccc4)CC3)c2cc1OC`, which GI50 (786-0 renal) is on record?
Answer: 1.84 µM

Question: And the TGI (786-0 renal)?
Answer: 5.2 µM

Question: What about the GI50 (A498 renal) of the same compound?
Answer: 0.904 µM

Question: What about the TGI (A498 renal) of the same compound?
Answer: 7.66 µM

Question: And the GI50 (A549 NSCLC)?
Answer: 2.94 µM

Question: And the TGI (A549 NSCLC)?
Answer: 10.2 µM

Question: What about the GI50 (ACHN renal) of the same compound?
Answer: 2.25 µM

Question: What about the TGI (ACHN renal) of the same compound?
Answer: 5.13 µM

Question: What about the GI50 (BT-549 breast) of the same compound?
Answer: 1.94 µM

Question: What about the TGI (BT-549 breast) of the same compound?
Answer: 4.68 µM

Question: And the GI50 (CAKI-1 renal)?
Answer: 1.63 µM

Question: What about the TGI (CAKI-1 renal) of the same compound?
Answer: 3.71 µM

Question: And the GI50 (CCRF-CEM leukemia)?
Answer: 2.37 µM

Question: And the TGI (CCRF-CEM leukemia)?
Answer: > 24.6 µM

Question: What about the GI50 (COLO 205 colon) of the same compound?
Answer: 1.84 µM

Question: And the TGI (COLO 205 colon)?
Answer: 3.51 µM

Question: And the GI50 (DU-145 prostate)?
Answer: 2.86 µM

Question: And the TGI (DU-145 prostate)?
Answer: 9.38 µM

Question: And the GI50 (EKVX NSCLC)?
Answer: 3.83 µM

Question: What about the TGI (EKVX NSCLC) of the same compound?
Answer: 13.9 µM

Question: What about the GI50 (HCC-2998 colon) of the same compound?
Answer: 2.71 µM

Question: And the TGI (HCC-2998 colon)?
Answer: 8.76 µM

Question: And the GI50 (HCT-116 colon)?
Answer: 2.24 µM

Question: And the TGI (HCT-116 colon)?
Answer: 6.19 µM

Question: And the GI50 (HCT-15 colon)?
Answer: 1.83 µM

Question: And the TGI (HCT-15 colon)?
Answer: 4.41 µM

Question: And the GI50 (HL-60(TB) leukemia)?
Answer: 1.83 µM

Question: What about the TGI (HL-60(TB) leukemia) of the same compound?
Answer: 4.3 µM

Question: And the GI50 (HOP-62 NSCLC)?
Answer: 3.23 µM

Question: And the TGI (HOP-62 NSCLC)?
Answer: 10.6 µM

Question: What about the GI50 (HOP-92 NSCLC) of the same compound?
Answer: 4.12 µM

Question: And the TGI (HOP-92 NSCLC)?
Answer: 13.6 µM

Question: What about the GI50 (HS 578T breast) of the same compound?
Answer: 2.04 µM

Question: What about the TGI (HS 578T breast) of the same compound?
Answer: 5.59 µM

Question: What about the GI50 (HT29 colon) of the same compound?
Answer: 1.33 µM

Question: And the TGI (HT29 colon)?
Answer: 5.26 µM

Question: What about the GI50 (IGROV1 ovarian) of the same compound?
Answer: 7.33 µM

Question: What about the TGI (IGROV1 ovarian) of the same compound?
Answer: 25.3 µM

Question: And the GI50 (K-562 leukemia)?
Answer: 1.47 µM

Question: And the TGI (K-562 leukemia)?
Answer: 4.56 µM

Question: What about the GI50 (KM12 colon) of the same compound?
Answer: 3.07 µM

Question: What about the TGI (KM12 colon) of the same compound?
Answer: 9.82 µM

Question: And the GI50 (LOX IMVI melanoma)?
Answer: 1.68 µM

Question: And the TGI (LOX IMVI melanoma)?
Answer: 3.28 µM

Question: And the GI50 (M14 melanoma)?
Answer: 1.76 µM

Question: And the TGI (M14 melanoma)?
Answer: 3.22 µM

Question: And the GI50 (MALME-3M melanoma)?
Answer: 1.87 µM

Question: What about the TGI (MALME-3M melanoma) of the same compound?
Answer: 3.37 µM

Question: And the GI50 (MCF7 breast)?
Answer: 2.08 µM

Question: And the TGI (MCF7 breast)?
Answer: 7.65 µM

Question: What about the GI50 (MDA-MB-231 breast) of the same compound?
Answer: 1.68 µM

Question: What about the TGI (MDA-MB-231 breast) of the same compound?
Answer: 4.75 µM

Question: And the GI50 (MDA-MB-435)?
Answer: 1.74 µM

Question: And the TGI (MDA-MB-435)?
Answer: 3.22 µM

Question: And the GI50 (MOLT-4 leukemia)?
Answer: 1.8 µM

Question: And the TGI (MOLT-4 leukemia)?
Answer: 6.25 µM

Question: What about the GI50 (NCI-H226 lung) of the same compound?
Answer: 2.68 µM

Question: And the TGI (NCI-H226 lung)?
Answer: 9.08 µM

Question: And the GI50 (NCI-H23 lung)?
Answer: 5.71 µM

Question: What about the TGI (NCI-H23 lung) of the same compound?
Answer: 19.7 µM

Question: And the GI50 (NCI-H460 lung)?
Answer: 2.19 µM

Question: And the TGI (NCI-H460 lung)?
Answer: 4.81 µM

Question: And the GI50 (NCI-H522 lung)?
Answer: 2.02 µM

Question: What about the TGI (NCI-H522 lung) of the same compound?
Answer: 4.22 µM

Question: And the GI50 (NCI/ADR-RES ovarian)?
Answer: 13.4 µM

Question: And the TGI (NCI/ADR-RES ovarian)?
Answer: 34.8 µM

Question: What about the GI50 (OVCAR-3 ovarian) of the same compound?
Answer: 3.17 µM

Question: And the TGI (OVCAR-3 ovarian)?
Answer: 9.41 µM

Question: What about the GI50 (OVCAR-4 ovarian) of the same compound?
Answer: 1.81 µM

Question: And the TGI (OVCAR-4 ovarian)?
Answer: 4.79 µM

Question: What about the GI50 (OVCAR-5 ovarian) of the same compound?
Answer: 4.47 µM

Question: What about the TGI (OVCAR-5 ovarian) of the same compound?
Answer: 15.1 µM

Question: And the GI50 (OVCAR-8 ovarian)?
Answer: 3.26 µM

Question: What about the TGI (OVCAR-8 ovarian) of the same compound?
Answer: 11.8 µM

Question: And the GI50 (PC-3 prostate)?
Answer: 4.4 µM

Question: And the TGI (PC-3 prostate)?
Answer: 20.1 µM

Question: What about the GI50 (RPMI-8226 leukemia) of the same compound?
Answer: 2.31 µM

Question: What about the TGI (RPMI-8226 leukemia) of the same compound?
Answer: 6.18 µM

Question: And the GI50 (RXF 393 renal)?
Answer: 1.33 µM

Question: What about the TGI (RXF 393 renal) of the same compound?
Answer: 3.12 µM

Question: What about the GI50 (SF-268 CNS) of the same compound?
Answer: 2.72 µM

Question: What about the TGI (SF-268 CNS) of the same compound?
Answer: 8.65 µM

Question: And the GI50 (SF-295 CNS)?
Answer: 1.81 µM

Question: What about the TGI (SF-295 CNS) of the same compound?
Answer: 3.46 µM

Question: And the GI50 (SF-539 CNS)?
Answer: 1.68 µM

Question: What about the TGI (SF-539 CNS) of the same compound?
Answer: 3.33 µM

Question: What about the GI50 (SK-MEL-2 melanoma) of the same compound?
Answer: 2.08 µM

Question: And the TGI (SK-MEL-2 melanoma)?
Answer: 4.25 µM

Question: What about the GI50 (SK-MEL-28 melanoma) of the same compound?
Answer: 1.88 µM

Question: What about the TGI (SK-MEL-28 melanoma) of the same compound?
Answer: 3.77 µM

Question: What about the GI50 (SK-MEL-5 melanoma) of the same compound?
Answer: 1.73 µM

Question: What about the TGI (SK-MEL-5 melanoma) of the same compound?
Answer: 3.14 µM

Question: And the GI50 (SK-OV-3 ovarian)?
Answer: 3.19 µM

Question: What about the TGI (SK-OV-3 ovarian) of the same compound?
Answer: 10.8 µM

Question: And the GI50 (SN12C renal)?
Answer: 6.68 µM

Question: What about the TGI (SN12C renal) of the same compound?
Answer: 25 µM

Question: What about the GI50 (SNB-19 CNS) of the same compound?
Answer: 4.28 µM

Question: What about the TGI (SNB-19 CNS) of the same compound?
Answer: 18.1 µM

Question: And the GI50 (SNB-75 CNS)?
Answer: 1.4 µM

Question: What about the TGI (SNB-75 CNS) of the same compound?
Answer: 4.55 µM

Question: What about the GI50 (SR leukemia) of the same compound?
Answer: 2.23 µM

Question: What about the TGI (SR leukemia) of the same compound?
Answer: 6.66 µM

Question: What about the GI50 (SW-620 colon) of the same compound?
Answer: 2.96 µM

Question: What about the TGI (SW-620 colon) of the same compound?
Answer: 9.64 µM

Question: What about the GI50 (T-47D breast) of the same compound?
Answer: 2.53 µM

Question: What about the TGI (T-47D breast) of the same compound?
Answer: 6.25 µM

Question: And the GI50 (TK-10 renal)?
Answer: 1.88 µM

Question: What about the TGI (TK-10 renal) of the same compound?
Answer: 4.02 µM

Question: And the GI50 (U251 CNS)?
Answer: 2.22 µM

Question: And the TGI (U251 CNS)?
Answer: 5.96 µM

Question: And the GI50 (UACC-257 melanoma)?
Answer: 1.74 µM

Question: And the TGI (UACC-257 melanoma)?
Answer: 3.36 µM

Question: And the GI50 (UACC-62 melanoma)?
Answer: 1.89 µM

Question: What about the TGI (UACC-62 melanoma) of the same compound?
Answer: 3.56 µM

Question: What about the GI50 (UO-31 renal) of the same compound?
Answer: 1.69 µM

Question: And the TGI (UO-31 renal)?
Answer: 3.2 µM
